Reference: US20040156869A1, “2-substituted quinazolin-4-ylamine analogues” (Neurogen Corporation, priority 2002, published 2004)

Biological target: human capsaicin receptor (VR1) (Homo sapiens, UniProt Q8NER1)
Experiment: Capsaicin receptor binding assay ([3H]RTX competition, VR1-transfected HEK293 membranes)

Sequence of human capsaicin receptor (VR1) (Q8NER1 whole entry): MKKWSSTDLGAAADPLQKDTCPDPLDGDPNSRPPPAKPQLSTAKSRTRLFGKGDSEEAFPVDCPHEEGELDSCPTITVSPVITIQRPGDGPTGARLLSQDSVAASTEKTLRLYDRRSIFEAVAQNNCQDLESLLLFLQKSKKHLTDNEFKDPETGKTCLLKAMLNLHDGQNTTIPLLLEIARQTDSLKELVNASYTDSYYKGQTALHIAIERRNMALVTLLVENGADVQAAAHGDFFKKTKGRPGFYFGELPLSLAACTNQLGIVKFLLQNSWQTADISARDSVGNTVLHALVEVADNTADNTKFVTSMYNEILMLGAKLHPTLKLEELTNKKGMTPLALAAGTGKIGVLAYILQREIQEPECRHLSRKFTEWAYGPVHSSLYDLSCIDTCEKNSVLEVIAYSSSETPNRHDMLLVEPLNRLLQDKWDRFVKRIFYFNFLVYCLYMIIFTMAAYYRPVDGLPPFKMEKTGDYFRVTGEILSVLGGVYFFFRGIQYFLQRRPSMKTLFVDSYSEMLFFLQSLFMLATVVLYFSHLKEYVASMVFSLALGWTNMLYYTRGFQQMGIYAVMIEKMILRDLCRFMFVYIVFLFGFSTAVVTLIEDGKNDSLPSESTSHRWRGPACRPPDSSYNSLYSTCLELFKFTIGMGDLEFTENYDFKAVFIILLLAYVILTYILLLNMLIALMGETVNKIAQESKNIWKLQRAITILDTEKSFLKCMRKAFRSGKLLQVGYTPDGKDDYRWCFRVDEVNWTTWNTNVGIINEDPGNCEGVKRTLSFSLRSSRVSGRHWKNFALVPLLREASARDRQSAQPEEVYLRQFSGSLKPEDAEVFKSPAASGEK

Ki, < 1000 nM:
CN(CCc1ccccc1)Cc1nc(Nc2ccc(C(F)(F)F)nc2)c2ccc(-c3ncccc3C(F)(F)F)cc2n1 [Compound 357, [2-[(Methyl-phenethyl-amino)-methyl]-7-(3-trifluoromethyl-pyridin-2-yl)-quinazolin-4-yl]-(6-trifluoromethyl-pyridin-3-yl)-amine]
FC(F)(F)c1ccc(Nc2nc(CN3CCCC3)nc3cc(-c4ncccc4C(F)(F)F)ccc23)cn1 [Compound 358, [2-Pyrrolidin-1-ylmethyl-7-(3-trifluoromethyl-pyridin-2-yl)-quinazolin-4-yl]-(6-trifluoromethyl-pyridin-3-yl)-amine]
FC(F)(F)c1ccc(Nc2nc(CN3CCCCC3)nc3cc(-c4ncccc4C(F)(F)F)ccc23)cn1 [Compound 359, [2-Piperidin-1-ylmethyl-7-(3-trifluoromethyl-pyridin-2-yl)-quinazolin-4-yl]-(6-trifluoromethyl-pyridin-3-yl)-amine]
CC1CCN(Cc2nc(Nc3ccc(C(F)(F)F)nc3)c3ccc(-c4ncccc4C(F)(F)F)cc3n2)CC1 [Compound 360, [2-(4-Methyl-piperidin-1-ylmethyl)-7-(3-trifluoromethyl-pyridin-2-yl)-quinazolin-4-yl]-(6-trifluoromethyl-pyridin-3-yl)-amine]
FC(F)(F)c1ccc(Nc2nc(CN3CCCCCC3)nc3cc(-c4ncccc4C(F)(F)F)ccc23)cn1 [Compound 361, [2-Azepan-1-ylmethyl-7-(3-trifluoromethyl-pyridin-2-yl)-quinazolin-4-yl]-(6-trifluoromethyl-pyridin-3-yl)-amine]
FC(F)(F)c1ccc(Nc2nc(CN3CCCCCCC3)nc3cc(-c4ncccc4C(F)(F)F)ccc23)cn1 [Compound 362, [2-Azocan-1-ylmethyl-7-(3-trifluoromethyl-pyridin-2-yl)-quinazolin-4-yl]-(6-trifluoromethyl-pyridin-3-yl)-amine]
CC1CCN(Cc2nc(Nc3ccc(C(F)(F)F)nc3)c3ccc(-c4ncccc4C(F)(F)F)cc3n2)CC(C)(C)C1 (stereo not shown) [Compound 363, (6-Trifluoromethyl-pyridin-3-yl)-[7-(3-trifluoromethyl-pyridin-2-yl)-2-(3,3,5-trimethyl-azepan-1-ylmethyl)-quinazolin-4-yl]-amine]
FC(F)(F)c1ccc(Nc2nc(CN3CCC4(CC3)OCCO4)nc3cc(-c4ncccc4C(F)(F)F)ccc23)cn1 [Compound 364, [2-(1,4-Dioxa-8-aza-spiro[4.5]dec-8-ylmethyl)-7-(3-trifluoromethyl-pyridin-2-yl)-quinazolin-4-yl]-(6-trifluoromethyl-pyridin-3-yl)-amine]
FC(F)(F)c1ccc(Nc2nc(CN3CCCC4CCCCC43)nc3cc(-c4ncccc4C(F)(F)F)ccc23)cn1 (stereo not shown) [Compound 365, [2-(Octahydro-quinolin-1-ylmethyl)-7-(3-trifluoromethyl-pyridin-2-yl)-quinazolin-4-yl]-(6-trifluoromethyl-pyridin-3-yl)-amine]
CN(C)Cc1nc(Nc2ccc(C(F)(F)F)nc2)c2ccc(-c3ncccc3C(F)(F)F)cc2n1 [Compound 366, [2-Dimethylaminomethyl-7-(3-trifluoromethyl-pyridin-2-yl)-quinazolin-4-yl]-(6-trifluoromethyl-pyridin-3-yl)-amine]
C=CCN(C)Cc1nc(Nc2ccc(C(F)(F)F)nc2)c2ccc(-c3ncccc3C(F)(F)F)cc2n1 [Compound 367, [2-[(Allyl-methyl-amino)-methyl]-7-(3-trifluoromethyl-pyridin-2-yl)-quinazolin-4-yl]-(6-trifluoromethyl-pyridin-3-yl)-amine]
CCN(CC)Cc1nc(Nc2ccc(C(F)(F)F)nc2)c2ccc(-c3ncccc3C(F)(F)F)cc2n1 [Compound 368, [2-Diethylaminomethyl-7-(3-trifluoromethyl-pyridin-2-yl)-quinazolin-4-yl]-(6-trifluoromethyl-pyridin-3-yl)-amine]
CCCN(C)Cc1nc(Nc2ccc(C(F)(F)F)nc2)c2ccc(-c3ncccc3C(F)(F)F)cc2n1 [Compound 369, [2-[(Methyl-propyl-amino)-methyl]-7-(3-trifluoromethyl-pyridin-2-yl)-quinazolin-4-yl]-(6-trifluoromethyl-pyridin-3-yl)-amine]
CCCCN(C)Cc1nc(Nc2ccc(C(F)(F)F)nc2)c2ccc(-c3ncccc3C(F)(F)F)cc2n1 [Compound 370, [2-[(Butyl-methyl-amino)-methyl]-7-(3-trifluoromethyl-pyridin-2-yl)-quinazolin-4-yl]-(6-trifluoromethyl-pyridin-3-yl)-amine]
CCN(Cc1nc(Nc2ccc(C(F)(F)F)nc2)c2ccc(-c3ncccc3C(F)(F)F)cc2n1)C(C)C [Compound 371, [2-[(Ethyl-isopropyl-amino)-methyl]-7-(3-trifluoromethyl-pyridin-2-yl)-quinazolin-4-yl]-(6-trifluoromethyl-pyridin-3-yl)-amine]
C=CCN(CC=C)Cc1nc(Nc2ccc(C(F)(F)F)nc2)c2ccc(-c3ncccc3C(F)(F)F)cc2n1 [Compound 372, [2-Diallylaminomethyl-7-(3-trifluoromethyl-pyridin-2-yl)-quinazolin-4-yl]-(6-trifluoromethyl-pyridin-3-yl)-amine]
CCCN(CCC)Cc1nc(Nc2ccc(C(F)(F)F)nc2)c2ccc(-c3ncccc3C(F)(F)F)cc2n1 [Compound 373, [2-Dipropylaminomethyl-7-(3-trifluoromethyl-pyridin-2-yl)-quinazolin-4-yl]-(6-trifluoromethyl-pyridin-3-yl)-amine]
CCCCN(CC)Cc1nc(Nc2ccc(C(F)(F)F)nc2)c2ccc(-c3ncccc3C(F)(F)F)cc2n1 [Compound 374, [2-[(Butyl-ethyl-amino)-methyl]-7-(3-trifluoromethyl-pyridin-2-yl)-quinazolin-4-yl]-(6-trifluoromethyl-pyridin-3-yl)-amine]
CCCN(Cc1nc(Nc2ccc(C(F)(F)F)nc2)c2ccc(-c3ncccc3C(F)(F)F)cc2n1)CC1CC1 [Compound 375, [2-[(Cyclopropylmethyl-propyl-amino)-methyl]-7-(3-trifluoromethyl-pyridin-2-yl)-quinazolin-4-yl]-(6-trifluoromethyl-pyridin-3-yl)-amine]
CCCCCCN(C)Cc1nc(Nc2ccc(C(F)(F)F)nc2)c2ccc(-c3ncccc3C(F)(F)F)cc2n1 [Compound 376, [2-[(Hexyl-methyl-ainino)-methyl]-7-(3-trifluoromethyl-pyridin-2-yl)-quinazolin-4-yl]-(6-trifluoromethyl-pyridin-3-yl)-amine]
CCCCN(CCCC)Cc1nc(Nc2ccc(C(F)(F)F)nc2)c2ccc(-c3ncccc3C(F)(F)F)cc2n1 [Compound 377, [2-Dibutylaminomethyl-7-(3-trifluoromethyl-pyridin-2-yl)-quinazolin-4-yl]-(6-trifluoromethyl-pyridin-3-yl)-amine]
CC(C)N(C)Cc1nc(Nc2ccc(C(F)(F)F)nc2)c2ccc(-c3ncccc3C(F)(F)F)cc2n1 [Compound 378, [2-[(Isopropyl-methyl-amino)-methyl]-7-(3-trifluoromethyl-pyridin-2-yl)-quinazolin-4-yl]-(6-trifluoromethyl-pyridin-3-yl)-amine]
